Data: patent US10144732B2 (BIOGEN MA INC., priority 2014, dated 2018)
pIC50: −log10 of the molar value. Counter-ions that a name gives are not always drawn.

Molecular target: T1, Human ATX protein (Homo sapiens, UniProt Q13822)
T1 construct: made in house
Test: ATX biochemical assay (FRET, FS-3 substrate)
Settings: FRET assay, FS-3 2 μM, ATX 1.0 μg/mL, 30 minutes preincubation, 2 hours reaction at room temperature; read-out: IC50
In short: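 FRET read-out: cleavage of FS-3 (2 μM final) unquenches fluorescein, measured at 485/538 nm after 2 h at room temperature. Before substrate addition, in-house-expressed human autotaxin (1.0 μg/mL) sat with compound for 30 min in pH 7.4 Tris/NaCl/KCl/CaCl2/MgCl2 buffer containing fatty acid free-BSA at 1 mg/mL.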

Structure (SMILES) | pIC50
O=C(C[C@H]1CC[C@H](C(=O)O)CC1)N1CCc2c(C(F)F)nn(Cc3ccc(F)cc3)c2C1 [Example 5-44, trans-4-(2-(3-(Difluoromethyl)-1-(4-fluorobenzyl)-4,5-dihydro-1H-pyrazolo[3,4-c]pyridin-6(7H)-yl)-2-oxoethyl)cyclohexanecarboxylic acid] | ≥ 7.00
O=C(O)CN1CCC(C(=O)N2CCc3c(C(F)(F)F)nn(Cc4ccc(F)cc4)c3C2)C1 (stereo not drawn) [Example 15-4, 2-(3-(1-(4-Fluorobenzyl)-3-(trifluoromethyl)-4,5,6,7-tetrahydro-1H-pyrazolo[3,4-c]pyridine-6-carbonyl)pyrrolidin-1-yl)acetic acid TFA salt] | ≥ 7.00
O=C(CC12CCC(C(=O)O)(CC1)C2)N1CCc2c(C(F)(F)F)nn(Cc3ccc(Cl)cc3F)c2C1 [Example 5-52, 4-(2-(1-(4-Chloro-2-fluorobenzyl)-3-(trifluoromethyl)-4,5-dihydro-1H-pyrazolo[3,4-c]pyridin-6(7H)-yl)-2-oxoethyl)bicyclo[2.2.1]heptane-1-carboxylic acid] | ≥ 7.00
O=C(CC1CNCCO1)N1CCc2c(C(F)(F)F)nn(Cc3ccc(Cl)cc3F)c2C1 (stereo not drawn) [Example 9-15, 1-(1-(4-Chloro-2-fluorobenzyl)-3-(trifluoromethyl)-4,5-dihydro-1H-pyrazolo[3,4-c]pyridin-6(7H)-yl)-2-(morpholin-2-yl)ethanone TFA salt] | ≥ 7.00
O=C(CC1CCOCC1)N1CCc2c(C(F)(F)F)nn(Cc3ccc(F)cc3)c2C1 [Example 1-30, 1-(1-(4-Fluorobenzyl)-3-(trifluoromethyl)-4,5-dihydro-1H-pyrazolo[3,4-c]pyridin-6(7H)-yl)-2-(tetrahydro-2H-pyran-4-yl)ethanone] | ≥ 7.00
CC(C)(C)OC(=O)N1CCC(CC(=O)N2CCc3c(C(F)(F)F)nn(Cc4ccc(Cl)cc4F)c3C2)CC1(C)C (stereo not drawn) [Example 8-6, tert-Butyl 4-(2-(1-(4-chloro-2-fluorobenzyl)-3-(trifluoromethyl)-4,5-dihydro-1H-pyrazolo[3,4-c]pyridin-6(7H)-yl)-2-oxoethyl)-2,2-dimethylpiperidine-1-carboxylate] | ≥ 7.00
CN1CC(CC(=O)N2CCc3c(C(F)(F)F)nn(Cc4ccc(Cl)cc4F)c3C2)C[C@@H]1C(=O)O (stereo partly drawn) [Example 10-10, (2R)-4-(2-(1-(4-chloro-2-fluorobenzyl)-3-(trifluoromethyl)-4,5-dihydro-1H-pyrazolo[3,4-c]pyridin-6(7H)-yl)-2-oxoethyl)-1-methylpyrrolidine-2-carboxylic acid TFA salt] | ≥ 7.00
O=C(CC1CC(N2CCOCC2)C1)N1CCc2c(C(F)(F)F)nn(Cc3ccc(F)cc3)c2C1 (stereo not drawn) [Example 22-5, 1-(1-(4-Fluorobenzyl)-3-(trifluoromethyl)-4,5-dihydro-1H-pyrazolo[3,4-c]pyridin-6(7H)-yl)-2-(3-morpholinocyclobutyl)ethanone TFA salt] | ≥ 7.00
CC1CCN(CC(=O)N2CCc3c(C(F)(F)F)nn(Cc4ccc(F)cc4)c3C2)CC1 [Example 12-14, 1-(1-(4-Fluorobenzyl)-3-(trifluoromethyl)-4,5-dihydro-1H-pyrazolo[3,4-c]pyridin-6(7H)-yl)-2-(4-methylpiperidin-1-yl)ethanone] | ≥ 7.00
CC1(C(=O)O)CC(CC(=O)N2CCc3c(C(F)(F)F)nn(Cc4ccc(Cl)cc4F)c3C2)C1 (stereo not drawn) [Example 6-18, 3-(2-(1-(4-Chloro-2-fluorobenzyl)-3-(trifluoromethyl)-4,5-dihydro-1H-pyrazolo[3,4-c]pyridin-6(7H)-yl)-2-oxoethyl)-1-methylcyclobutanecarboxylic acid] | ≥ 7.00
CCOC(=O)C1CCC(CC(=O)N2CCc3c(C(F)(F)F)nn(Cc4cccc(F)c4)c3C2)CC1 (stereo not drawn) [Example 1-18, Ethyl 4-(2-(1-(3-fluorobenzyl)-3-(trifluoromethyl)-4,5-dihydro-1H-pyrazolo[3,4-c]pyridin-6(7H)-yl)-2-oxoethyl)cyclohexanecarboxylate] | ≥ 7.00
O=C(C[C@H]1CC[C@H](N2CC(F)(F)C2)CC1)N1CCc2c(C(F)(F)F)nn(Cc3ccc(F)cc3)c2C1 [Example 22-8, 2-(trans-4-(3,3-difluoroazetidin-1-yl)cyclohexyl)-1-(1-(4-fluorobenzyl)-3-(trifluoromethyl)-4,5-dihydro-1H-pyrazolo[3,4-c]pyridin-6(7H)-yl)ethanone TFA salt] | ≥ 7.00
CC(C)(C)OC(=O)N1CCCC(CC(=O)N2CCc3c(C(F)(F)F)nn(Cc4ccc(F)cc4)c3C2)C1 (stereo not drawn) [Example 8-4, tert-Butyl 3-(2-(1-(4-fluorobenzyl)-3-(trifluoromethyl)-4,5-dihydro-1H-pyrazolo[3,4-c]pyridin-6(7H)-yl)-2-oxoethyl)piperidine-1-carboxylate] | ≥ 7.00
CCC1CC(CC(=O)N2CCc3c(C(F)(F)F)nn(Cc4ccc(F)cc4)c3C2)CCN1C (stereo not drawn) [Example 10-7, 2-(2-Ethyl-1-methylpiperidin-4-yl)-1-(1-(4-fluorobenzyl)-3-(trifluoromethyl)-4,5-dihydro-1H-pyrazolo[3,4-c]pyridin-6(7H)-yl)ethanone TFA salt] | ≥ 7.00
CCC1CC(CC(=O)N2CCc3c(C(F)(F)F)nn(Cc4ccc(F)cc4)c3C2)CCN1C(=O)OC(C)(C)C (stereo not drawn) [Example 8-8, tert-Butyl 2-ethyl-4-(2-(1-(4-fluorobenzyl)-3-(trifluoromethyl)-4,5-dihydro-1H-pyrazolo[3,4-c]pyridin-6(7H)-yl)-2-oxoethyl)piperidine-1-carboxylate] | ≥ 7.00
COC(=O)C1CC2CCC(C1)C2CC(=O)N1CCc2c(C(F)(F)F)nn(Cc3ccc(Cl)cc3F)c2C1 (stereo not drawn) [Example 1-27, Methyl 8-(2-(1-(4-chloro-2-fluorobenzyl)-3-(trifluoromethyl)-4,5-dihydro-1H-pyrazolo[3,4-c]pyridin-6(7H)-yl)-2-oxoethyl)bicyclo[3.2.1]octane-3-carboxylate] | ≥ 7.00
O=C(C[C@H]1CC[C@H](C(=O)O)CC1)N1CCc2c(C(F)(F)F)nn(Cc3cc(F)c(F)cc3F)c2C1 [Example 5-32, trans-4-(2-(1-(2,4,5-Trifluorobenzyl)-3-(trifluoromethyl)-4,5-dihydro-1H-pyrazolo[3,4-c]pyridin-6(7H)-yl)-2-oxoethyl)cyclohexanecarboxylic acid] | ≥ 7.00
O=C(O)C1CCC(CC(=O)N2CCc3c(C(F)(F)F)nn(Cc4ccc(C(F)(F)F)cc4)c3C2)CC1 (mixture of isomers) [Example 6-2, 4-(2-Oxo-2-(3-(trifluoromethyl)-1-(4-(trifluoromethyl)benzyl)-4,5-dihydro-1H-pyrazolo[3,4-c]pyridin-6(7H)-yl)ethyl)cyclohexanecarboxylic acid] | ≥ 7.00
O=C(O)[C@H]1CC[C@@H](C(=O)N2CCc3c(C(F)(F)F)nn(Cc4ccc(F)cc4)c3C2)CC1 [Example 7-18, cis-4-(1-(4-fluorobenzyl)-3-(trifluoromethyl)-4,5,6,7-tetrahydro-1H-pyrazolo[3,4-c]pyridine-6-carbonyl)cyclohexanecarboxylic acid] | ≥ 7.00
C[C@]1(C(=O)O)C[C@@H](CC(=O)N2CCc3c(C(F)(F)F)nn(Cc4ccc(F)cc4)c3C2)C1 [Example 7-23, cis-3-(2-(1-(4-Fluorobenzyl)-3-(trifluoromethyl)-4,5-dihydro-1H-pyrazolo[3,4-c]pyridin-6(7H)-yl)-2-oxoethyl)-1-methylcyclobutanecarboxylic acid] | ≥ 7.00
CC(C)(C)OC(=O)N1CC(CC(=O)N2CCc3c(C(F)(F)F)nn(Cc4ccc(Cl)cc4F)c3C2)C1 [Example 8-3, tert-Butyl 3-(2-(1-(4-chloro-2-fluorobenzyl)-3-(trifluoromethyl)-4,5-dihydro-1H-pyrazolo[3,4-c]pyridin-6(7H)-yl)-2-oxoethyl)azetidine-1-carboxylate] | ≥ 7.00
O=C(CC1CCCCC1)N1CCc2c(C(F)(F)F)nn(Cc3ccc(Cl)cc3F)c2C1 [Example 1-5, 1-(1-(4-Chloro-2-fluorobenzyl)-3-(trifluoromethyl)-4,5-dihydro-1H-pyrazolo[3,4-c]pyridin-6(7H)-yl)-2-cyclohexylethanone] | ≥ 7.00
O=C(CC1CCOCC1)N1CCc2c(C(F)(F)F)nn(Cc3ccc(Cl)cc3F)c2C1 [Example 1-29, 1-(1-(4-Chloro-2-fluorobenzyl)-3-(trifluoromethyl)-4,5-dihydro-1H-pyrazolo[3,4-c]pyridin-6(7H)-yl)-2-(tetrahydro-2H-pyran-4-yl)ethanone] | ≥ 7.00
CC(C)(C)OC(=O)N1CC(CC(=O)N2CCc3c(C(F)(F)F)nn(Cc4ccc(Cl)cc4F)c3C2)C[C@@H]1C(=O)O (stereo partly drawn) [Example 5-56, (2R)-1-(tert-Butoxycarbonyl)-4-(2-(1-(4-chloro-2-fluorobenzyl)-3-(trifluoromethyl)-4,5-dihydro-1H-pyrazolo[3,4-c]pyridin-6(7H)-yl)-2-oxoethyl)pyrrolidine-2-carboxylic acid] | ≥ 7.00
CC(C)(C)OC(=O)N1CC(CC(=O)N2CCc3c(C(F)(F)F)nn(Cc4ccc(Cl)cc4F)c3C2)C[C@H]1C(=O)O (stereo partly drawn) [Example 5-18, (2S)-1-(tert-Butoxycarbonyl)-4-(2-(1-(4-chloro-2-fluorobenzyl)-3-(trifluoromethyl)-4,5-dihydro-1H-pyrazolo[3,4-c]pyridin-6(7H)-yl)-2-oxoethyl)pyrrolidine-2-carboxylic acid] | ≥ 7.00

Same assay, conditions: IC50, FRET assay, FS-3 2 μM, ATX 1.0 μg/mL, 30 minutes preincubation, 2 hours reaction at room temperature

Structure (SMILES) | pIC50
COC(=O)C1CC2COCC(C1)N2CC(=O)N1CCc2c(C(F)(F)F)nn(Cc3ccc(F)cc3)c2C1 (stereo not drawn) [Example 12-18, Methyl 9-(2-(1-(4-fluorobenzyl)-3-(trifluoromethyl)-4,5-dihydro-1H-pyrazolo[3,4-c]pyridin-6(7H)-yl)-2-oxoethyl)-3-oxa-9-azabicyclo[3.3.1]nonane-7-carboxylate] | ≥ 7.00
O=C(CC1CN2CCC1CC2)N1CCc2c(C(F)(F)F)nn(Cc3ccc(F)cc3)c2C1 (stereo not drawn) [Example 1-37, 1-(1-(4-Fluorobenzyl)-3-(trifluoromethyl)-4,5-dihydro-1H-pyrazolo[3,4-c]pyridin-6(7H)-yl)-2-(quinuclidin-3-yl)ethanone TFA salt] | ≥ 7.00
